Results from US20080069785A1, “PEST-CONTROL COMPOSITIONS, AND METHODS AND PRODUCTS UTILIZING SAME” (priority 2004, published 2008).

Test system: cockroaches (Blattella germanica)
Assay: Weeklong surface area toxicity test on cockroaches (Example 19)
Format: in vivo
Method: In order determine the toxicity of the formulation to the insect after application to a surface over a period of time, the following test was performed. […] Cockroaches were placed in the cups on the first day following the application of the formulations, on the third day following the application of the formulations, and on the sixth day following the application of the formulations in order to monitor the toxicity of the formulations after a period of time had elapsed. The mortality of the cockroaches was then recorded at the time intervals noted. The five cockroaches placed in each cup were one week old cockroaches (Blattella germanica) which had been reared at twenty seven degrees centigrade, at sixty five percent relative humidity, and on a twelve hour light to dark photoperiod. Each of the cups had Fluon®AD1 treated sides to prevent the escape of the cockroaches.

Measured: cockroaches alive (of five per cup)

CCCCCCCCCC(C)=O [Undecanone, 2-Undecanone]
0: 3-4 days treatment, 0.95 μL/cm^2 (50 μL), 27 h | 3-4 days treatment, 0.95 μL/cm^2 (50 μL), 30 h
1: 3-4 days treatment, 0.95 μL/cm^2 (50 μL), 23 h | 3-4 days treatment, 0.95 μL/cm^2 (50 μL), 24 h
2: 3-4 days treatment, 0.95 μL/cm^2 (50 μL), 4 h | 6-7 days treatment, 0.95 μL/cm^2 (50 μL), 21.5 h | 6-7 days treatment, 0.95 μL/cm^2 (50 μL), 22 h | 6-7 days treatment, 0.95 μL/cm^2 (50 μL), 23 h | 6-7 days treatment, 0.95 μL/cm^2 (50 μL), 24 h
3: 3-4 days treatment, 0.95 μL/cm^2 (50 μL), 2 h
5: 3-4 days treatment, 0.09 μL/cm^2 (5 μL), 23 h | 3-4 days treatment, 0.09 μL/cm^2 (5 μL), 24 h | 3-4 days treatment, 0.09 μL/cm^2 (5 μL), 27 h | 3-4 days treatment, 0.09 μL/cm^2 (5 μL), 30 h | 3-4 days treatment, 0.19 μL/cm^2 (10 μL), 5 min | 3-4 days treatment, 0.19 μL/cm^2 (10 μL), 10 min | 3-4 days treatment, 0.19 μL/cm^2 (10 μL), 15 min | 3-4 days treatment, 0.19 μL/cm^2 (10 μL), 30 min | 3-4 days treatment, 0.19 μL/cm^2 (10 μL), 60 min | 3-4 days treatment, 0.19 μL/cm^2 (10 μL), 90 min | 3-4 days treatment, 0.19 μL/cm^2 (10 μL), 2 h | 3-4 days treatment, 0.19 μL/cm^2 (10 μL), 4 h | 3-4 days treatment, 0.19 μL/cm^2 (10 μL), 23 h | 3-4 days treatment, 0.19 μL/cm^2 (10 μL), 24 h | 3-4 days treatment, 0.19 μL/cm^2 (10 μL), 27 h | 3-4 days treatment, 0.19 μL/cm^2 (10 μL), 30 h | 3-4 days treatment, 0.95 μL/cm^2 (50 μL), 5 min | 3-4 days treatment, 0.95 μL/cm^2 (50 μL), 10 min | 3-4 days treatment, 0.95 μL/cm^2 (50 μL), 15 min | 3-4 days treatment, 0.95 μL/cm^2 (50 μL), 30 min | 3-4 days treatment, 0.95 μL/cm^2 (50 μL), 60 min | 3-4 days treatment, 0.95 μL/cm^2 (50 μL), 90 min | 6-7 days treatment, 0.02 μL/cm^2 (1 μL), 5 min | 6-7 days treatment, 0.02 μL/cm^2 (1 μL), 10 min | 6-7 days treatment, 0.02 μL/cm^2 (1 μL), 15 min | 6-7 days treatment, 0.02 μL/cm^2 (1 μL), 30 min | 6-7 days treatment, 0.02 μL/cm^2 (1 μL), 60 min | 6-7 days treatment, 0.02 μL/cm^2 (1 μL), 90 min | 6-7 days treatment, 0.02 μL/cm^2 (1 μL), 2 h | 6-7 days treatment, 0.02 μL/cm^2 (1 μL), 4 h | 6-7 days treatment, 0.02 μL/cm^2 (1 μL), 21.5 h | 6-7 days treatment, 0.02 μL/cm^2 (1 μL), 22 h | 6-7 days treatment, 0.02 μL/cm^2 (1 μL), 23 h | 6-7 days treatment, 0.02 μL/cm^2 (1 μL), 24 h | 6-7 days treatment, 0.02 μL/cm^2 (1 μL), 27 h | 6-7 days treatment, 0.02 μL/cm^2 (1 μL), 29 h | 6-7 days treatment, 0.02 μL/cm^2 (1 μL), 30 h | 6-7 days treatment, 0.02 μL/cm^2 (1 μL), 31 h | 6-7 days treatment, 0.09 μL/cm^2 (5 μL), 5 min | 6-7 days treatment, 0.09 μL/cm^2 (5 μL), 10 min | 6-7 days treatment, 0.09 μL/cm^2 (5 μL), 15 min | 6-7 days treatment, 0.09 μL/cm^2 (5 μL), 30 min | 6-7 days treatment, 0.09 μL/cm^2 (5 μL), 60 min | 6-7 days treatment, 0.09 μL/cm^2 (5 μL), 90 min | 6-7 days treatment, 0.09 μL/cm^2 (5 μL), 2 h | 6-7 days treatment, 0.09 μL/cm^2 (5 μL), 4 h | 6-7 days treatment, 0.09 μL/cm^2 (5 μL), 21.5 h | 6-7 days treatment, 0.09 μL/cm^2 (5 μL), 22 h | 6-7 days treatment, 0.09 μL/cm^2 (5 μL), 23 h | 6-7 days treatment, 0.09 μL/cm^2 (5 μL), 24 h | 6-7 days treatment, 0.09 μL/cm^2 (5 μL), 27 h | 6-7 days treatment, 0.09 μL/cm^2 (5 μL), 29 h | 6-7 days treatment, 0.09 μL/cm^2 (5 μL), 30 h | 6-7 days treatment, 0.09 μL/cm^2 (5 μL), 31 h | 6-7 days treatment, 0.19 μL/cm^2 (10 μL), 5 min | 6-7 days treatment, 0.19 μL/cm^2 (10 μL), 10 min | 6-7 days treatment, 0.19 μL/cm^2 (10 μL), 15 min | 6-7 days treatment, 0.19 μL/cm^2 (10 μL), 30 min | 6-7 days treatment, 0.19 μL/cm^2 (10 μL), 60 min | 6-7 days treatment, 0.19 μL/cm^2 (10 μL), 90 min | 6-7 days treatment, 0.19 μL/cm^2 (10 μL), 2 h | 6-7 days treatment, 0.19 μL/cm^2 (10 μL), 4 h | 6-7 days treatment, 0.19 μL/cm^2 (10 μL), 21.5 h | 6-7 days treatment, 0.19 μL/cm^2 (10 μL), 22 h | 6-7 days treatment, 0.19 μL/cm^2 (10 μL), 23 h | 6-7 days treatment, 0.19 μL/cm^2 (10 μL), 24 h | 6-7 days treatment, 0.19 μL/cm^2 (10 μL), 27 h | 6-7 days treatment, 0.19 μL/cm^2 (10 μL), 29 h | 6-7 days treatment, 0.19 μL/cm^2 (10 μL), 30 h | 6-7 days treatment, 0.19 μL/cm^2 (10 μL), 31 h
